Consider 1 molecule from ChEMBL document CHEMBL4373715, “Discovery and Biological Evaluations of Halogenated 2,4-Diphenyl Indeno[1,2-b]pyridinol Derivatives as Potent Topoisomerase IIα-Targeted Chemotherapeutic Agents for Breast Cancer” (J Med Chem, 2019).

SMILES strings stand for the structures. Calls of active or inactive are those of the source. The calls are words filed in the database; no cut-off is given here.

Data set [1] has as its system T47D. Put plainly: Antiproliferative activity against human T47D cells measured after 72 hrs by EZ-Cytox assay. The format is functional, cell-based.
In data set [2] the target is T1, DNA topoisomerase 1 (Homo sapiens) (UniProt P11387).
T1 sequence (whole entry): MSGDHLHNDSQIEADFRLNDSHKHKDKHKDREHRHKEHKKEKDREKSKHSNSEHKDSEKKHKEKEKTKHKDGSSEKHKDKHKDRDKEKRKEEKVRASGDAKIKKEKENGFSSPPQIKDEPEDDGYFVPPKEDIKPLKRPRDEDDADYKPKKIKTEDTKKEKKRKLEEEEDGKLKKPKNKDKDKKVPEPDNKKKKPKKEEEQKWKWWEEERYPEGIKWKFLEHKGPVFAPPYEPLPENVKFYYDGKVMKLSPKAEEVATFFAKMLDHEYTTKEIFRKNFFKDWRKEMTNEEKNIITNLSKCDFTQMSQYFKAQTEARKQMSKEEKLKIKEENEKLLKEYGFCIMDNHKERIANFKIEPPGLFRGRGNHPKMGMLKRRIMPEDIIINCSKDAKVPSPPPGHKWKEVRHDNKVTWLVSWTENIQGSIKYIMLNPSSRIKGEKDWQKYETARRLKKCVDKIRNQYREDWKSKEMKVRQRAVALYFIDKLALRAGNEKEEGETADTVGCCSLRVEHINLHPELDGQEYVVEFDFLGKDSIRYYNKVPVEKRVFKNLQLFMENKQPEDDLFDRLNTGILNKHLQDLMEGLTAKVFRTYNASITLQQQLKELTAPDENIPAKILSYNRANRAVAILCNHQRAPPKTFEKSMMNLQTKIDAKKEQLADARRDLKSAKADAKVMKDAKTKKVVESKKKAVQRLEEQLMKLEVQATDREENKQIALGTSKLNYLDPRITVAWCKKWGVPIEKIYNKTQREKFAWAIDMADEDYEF
Put plainly: Inhibition of recombinant human topoisomerase 1-mediated relaxation of supercoiled pBR322 DNA at 100 uM measured after 30 mins by ethidium bromide staining based agarose gel electrophoresis relative to control.

The target in data set [3] is DNA topoisomerase 2-alpha (Homo sapiens) (UniProt P11388). In words: Inhibition of recombinant human topoisomerase 2alpha-mediated relaxation of supercoiled pBR322 DNA at 100 uM measured after 30 mins by ethidium bromide staining based agarose gel electrophoresis relative to control.
Data set [4] has as its system T47D. Put plainly: Induction of DNA damage in human T47D cells at 5 to 10 uM measured after 24 hrs by comet assay. It counts as functional, cell-based.
In data set [5] the test system is T47D. Put plainly: Induction of apoptosis in human T47D cells assessed as increase in Bax expression at 10 to 30 uM measured after 24 hrs by Western blot analysis. It counts as functional, cell-based.
Data set [6] in a line: Stability in mouse plasma assessed as parent compound remaining at 1 mM measured after 4 hrs by LC-MS/MS analysis. The settings on record: 1000 µM. The format is ADME, cell-free.
Data set [7] is described as follows: Stability in rat plasma assessed as parent compound remaining at 1 mM measured after 0.5 hrs by LC-MS/MS analysis. It counts as ADME, cell-free. The settings on record: read-out: Stability.
Data set [8] is described as follows: Stability in human plasma assessed as parent compound remaining at 1 mM measured after 1 hr by LC-MS/MS analysis. The format is ADME, cell-free. The settings on record: read-out: Stability.
The nature of data set [9]: Stability in human plasma assessed as parent compound remaining at 1 mM measured after 4 hrs by LC-MS/MS analysis. The format is ADME, cell-free. The settings on record: read-out: Stability.
Data set [10] can be described thus: Protein binding in mouse plasma assessed as unbound fraction at 1 mM measured immediately by LC-MS/MS analysis. It counts as ADME, cell-free.
The nature of data set [11]: Toxicity in female ICR mouse assessed as change in body weight at 50 to 100 mg/kg, iv administered as single dose measured daily for 7 days. It counts as organism-based. The settings on record: in vivo, 168 h.
A short description of data set [12]: Toxicity in male ICR mouse assessed as mortality at 50 mg/kg, iv administered as single dose measured daily for 7 days (reference value: 0%). The settings on record: in vivo. It counts as organism-based.
Data set [13] is described as follows: Toxicity in male ICR mouse assessed as mortality at 100 mg/kg, iv administered as single dose measured daily for 7 days (reference value: 0%). The format is organism-based. The settings on record: in vivo.
Another data set concerns MDA-MB-231. In words: Antiproliferative activity against human MDA-MB-231 cells measured after 72 hrs by Ez-cytox assay. The format is functional, cell-based. The settings on record: MDA-MB-231, 72 h.
For a further data set, the system named is HCC70. In words: Antiproliferative activity against human HCC70 cells measured after 72 hrs by Ez-cytox assay. The format is functional, cell-based. The settings on record: HCC70, 72 h, read-out: IC50.

The IC50 is the concentration at which inhibition is half-maximal. Broadly, the inhibition is the percentage by which the read-out fell short of the control. A word on the fraction unbound: it is the share of the substance not bound to proteins or other matrix. One may read the mortality as the percentage killed.

Chain of DNA topoisomerase 2-alpha (Homo sapiens) (P11388 whole entry): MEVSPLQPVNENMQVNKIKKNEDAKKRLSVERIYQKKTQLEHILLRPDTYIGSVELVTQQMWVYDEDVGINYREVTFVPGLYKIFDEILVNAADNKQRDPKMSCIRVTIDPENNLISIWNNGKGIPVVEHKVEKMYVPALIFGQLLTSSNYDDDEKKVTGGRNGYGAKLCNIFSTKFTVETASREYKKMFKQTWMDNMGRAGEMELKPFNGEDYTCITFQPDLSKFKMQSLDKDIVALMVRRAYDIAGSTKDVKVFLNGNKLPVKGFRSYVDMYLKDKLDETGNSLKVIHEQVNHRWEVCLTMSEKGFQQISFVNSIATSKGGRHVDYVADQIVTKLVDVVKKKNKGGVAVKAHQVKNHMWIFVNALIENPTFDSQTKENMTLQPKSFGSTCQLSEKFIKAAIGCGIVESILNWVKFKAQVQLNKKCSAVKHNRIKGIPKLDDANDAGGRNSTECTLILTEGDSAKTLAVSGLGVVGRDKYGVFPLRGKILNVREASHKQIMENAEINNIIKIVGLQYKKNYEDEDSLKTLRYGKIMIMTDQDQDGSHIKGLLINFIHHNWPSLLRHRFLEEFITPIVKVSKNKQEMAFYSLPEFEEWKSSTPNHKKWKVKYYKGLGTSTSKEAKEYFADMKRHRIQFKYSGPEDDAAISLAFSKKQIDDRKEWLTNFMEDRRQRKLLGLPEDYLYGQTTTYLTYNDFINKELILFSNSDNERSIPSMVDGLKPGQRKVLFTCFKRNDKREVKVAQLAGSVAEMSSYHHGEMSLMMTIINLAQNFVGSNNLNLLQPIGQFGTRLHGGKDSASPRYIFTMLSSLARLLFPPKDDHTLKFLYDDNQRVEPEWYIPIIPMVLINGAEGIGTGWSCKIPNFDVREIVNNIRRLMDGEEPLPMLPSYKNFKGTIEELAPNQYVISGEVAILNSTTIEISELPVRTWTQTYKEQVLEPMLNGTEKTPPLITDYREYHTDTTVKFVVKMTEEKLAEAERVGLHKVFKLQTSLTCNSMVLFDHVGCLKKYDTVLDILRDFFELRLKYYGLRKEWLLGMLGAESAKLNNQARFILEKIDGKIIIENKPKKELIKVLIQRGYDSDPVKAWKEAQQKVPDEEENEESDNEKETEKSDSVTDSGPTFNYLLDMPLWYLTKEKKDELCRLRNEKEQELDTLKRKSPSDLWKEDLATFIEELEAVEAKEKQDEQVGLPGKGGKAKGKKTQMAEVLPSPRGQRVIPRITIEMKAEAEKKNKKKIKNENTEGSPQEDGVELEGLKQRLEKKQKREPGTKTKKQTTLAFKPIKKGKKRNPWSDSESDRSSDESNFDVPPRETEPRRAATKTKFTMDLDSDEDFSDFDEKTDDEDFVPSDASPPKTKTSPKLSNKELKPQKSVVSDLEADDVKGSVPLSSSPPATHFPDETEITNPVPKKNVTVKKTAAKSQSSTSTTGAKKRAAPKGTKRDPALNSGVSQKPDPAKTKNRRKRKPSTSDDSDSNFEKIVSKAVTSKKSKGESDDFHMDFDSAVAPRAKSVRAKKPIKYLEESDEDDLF

For `Oc1ccc(-c2cc(-c3ccccc3Cl)nc3c2Cc2c(O)cccc2-3)cc1`, the IC50 was determined as 2.67 nM with T47D [1], 2700 nM in the data set with MDA-MB-231 and 2080 nM in the data set on HCC70. Also, the inhibition was 0% in data set [2] and 100% in [3]. The result in the data set on T47D [4] and with T47D [5] was Active. Moreover, in data set [6], the Stability is 130.8%. Moreover, in data set [7], the remaining at 0.5 h turned out to be 99.8%. Moreover, the remaining at 1 h in [8] came to 104%. Further, the remaining at 4 h in data set [9] came out at 105%. Moreover, in data set [10], the fraction unbound at 0 h worked out at 1. Also, the Activity entry in [11] is given as “Non-Toxic”. The mortality at 168 h in [12] and in [13] was 0% each time.
